Source: patent US11339171B2, “MDM2 inhibitors” (Gan & Lee Pharmaceuticals, priority 2017, dated 2022)
Values joined by “and” are separate entries in the source; they are usually repeats but may differ in a detail not shown here. Equal values may be shown once. Read-outs that look alike come from different tables or passages of the source.

Columns and labels:
[1] = Pharmacokinetics in ICR mice after intravenous and intragastric administration; format: in vivo; details: for MRT last: read-out: MRT(0-t); for MRT inf: read-out: MRT(0-∞); for Vd: read-out: Vz
Method in brief: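 Male ICR mice aged 6-9 weeks are dosed after an overnight fast, intravenously at 2 mg/kg and orally by gavage at 5 mg/kg. Plasma drug is measured by LC-MS/MS over a 1-2000 ng/ml range.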

MDM2 = molecular target: T1, MDM2 (Homo sapiens, UniProt Q00987); assay: Inhibition test of MDM2-P53 (GST-MDM2, Biotin-P53, Anti-GST-Tb, SA-XL665); format: binding
T1 construct: made in house
T1 sequence (Q00987 whole entry): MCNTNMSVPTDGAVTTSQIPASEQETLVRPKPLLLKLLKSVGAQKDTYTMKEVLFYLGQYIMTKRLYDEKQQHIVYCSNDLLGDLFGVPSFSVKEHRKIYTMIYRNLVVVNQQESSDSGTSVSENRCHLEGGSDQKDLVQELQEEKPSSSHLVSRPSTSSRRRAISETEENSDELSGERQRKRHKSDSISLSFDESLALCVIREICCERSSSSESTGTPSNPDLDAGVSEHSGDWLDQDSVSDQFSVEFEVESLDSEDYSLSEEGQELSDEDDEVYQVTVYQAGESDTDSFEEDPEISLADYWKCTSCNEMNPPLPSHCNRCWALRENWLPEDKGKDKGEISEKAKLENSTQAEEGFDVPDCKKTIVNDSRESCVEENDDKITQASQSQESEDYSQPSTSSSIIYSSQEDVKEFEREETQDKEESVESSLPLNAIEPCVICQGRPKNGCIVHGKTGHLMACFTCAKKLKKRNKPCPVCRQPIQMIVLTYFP
Method in brief: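 HTRF-type assay using 4 nM GST-MDM2 (final), Biotin-P53, SA-XL665 and anti-GST-Tb in PBS with 0.1% BSA, 5 mM DTT and 1 mM AEBSF. Compounds in 5-fold serial dilutions over twelve points; incubation 90 min at 25° C with shaking before plate-reader read-out.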

[2] = system: human osteosarcoma cell line SJSA-1; assay: Inhibition of proliferation of human osteosarcoma cell line SJSA-1 (DAPI staining, In Cell Analyzer); details: Homo sapiens, SJSA-1, 72 h, read-out: IC50 (nM), inhibitory activity on proliferation of human osteosarcoma cell line SJSA-1, SJSA-1, incubated 72 h
[3] = ICR mice, IV 2 mg/kg, individual animal, 2 mg/kg
[4] = ICR mice, PO 5 mg/kg, individual animal, 5 mg/kg
[5] = male, ICR, mouse, plasma, iv, 2 mg/kg, ICR mice, IV 2 mg/kg, individual animal
[6] = male, ICR, mouse, plasma, iv, 2 mg/kg, ICR mice, IV 2 mg/kg, individual animal, read-out: AUC(0-t)
[7] = male, ICR, mouse, plasma, iv, 2 mg/kg, ICR mice, IV 2 mg/kg, individual animal, read-out: Cmax
[8] = male, ICR, mouse, plasma, iv, 2 mg/kg, ICR mice, IV 2 mg/kg, individual animal, read-out: t1/2 (converted)
[9] = male, ICR, mouse, plasma, iv, 2 mg/kg, ICR mice, IV 2 mg/kg, mean of 3 animals
[10] = male, ICR, mouse, plasma, iv, 2 mg/kg, ICR mice, IV 2 mg/kg, mean of 3 animals, read-out: AUC(0-t)
[11] = male, ICR, mouse, plasma, iv, 2 mg/kg, ICR mice, IV 2 mg/kg, mean of 3 animals, read-out: Cmax
[12] = male, ICR, mouse, plasma, iv, 2 mg/kg, ICR mice, IV 2 mg/kg, mean of 3 animals, read-out: Tmax
[13] = male, ICR, mouse, plasma, iv, 2 mg/kg, ICR mice, IV 2 mg/kg, mean of 3 animals, read-out: t1/2 (converted)
[14] = male, ICR, mouse, plasma, po, 5 mg/kg, ICR mice, PO 5 mg/kg, individual animal
[15] = male, ICR, mouse, plasma, po, 5 mg/kg, ICR mice, PO 5 mg/kg, individual animal, read-out: Cmax
[16] = male, ICR, mouse, plasma, po, 5 mg/kg, ICR mice, PO 5 mg/kg, individual animal, read-out: Tmax
[17] = male, ICR, mouse, plasma, po, 5 mg/kg, ICR mice, PO 5 mg/kg, mean of 3 animals
[18] = male, ICR, mouse, plasma, po, 5 mg/kg, ICR mice, PO 5 mg/kg, mean of 3 animals, read-out: AUC(0-t)
[19] = male, ICR, mouse, plasma, po, 5 mg/kg, ICR mice, PO 5 mg/kg, mean of 3 animals, read-out: Cmax
[20] = male, ICR, mouse, plasma, po, 5 mg/kg, ICR mice, PO 5 mg/kg, mean of 3 animals, read-out: Tmax
[21] = male, ICR, mouse, plasma, po, 5 mg/kg, ICR mice, PO 5 mg/kg, mean of 3 animals, read-out: t1/2 (converted)
[22] = male, ICR, mouse, plasma, po, 5 mg/kg, oral intragastric administration 5 mg/kg, read-out: AUC0-t
[23] = male, ICR, mouse, plasma, po, 5 mg/kg, oral intragastric administration 5 mg/kg, read-out: half-life (converted)
[24] = male, mouse, plasma, ICR mice, PO 5 mg/kg vs IV 2 mg/kg, from mean values, read-out: F* (bioavailability)

Structure (SMILES): COc1cc(OC(C)C)ncc1-c1nc2c(n1C(C)C)[C@@]1(C(=O)Nc3cc(Cl)ccc31)N(c1cc(Cl)ccc1C)C2=O [Example S-69, (S)-6-chloro-5′-(5-chloro-2-methylphenyl)-2′-(6-isopropoxy-4-methoxypyridin-3-yl)-3′-isopropyl-3′H-spiro[dihydroindole-3,4′-pyrrolo[3,4-d]imidazole]-2,6′(5′H)-dione]
- AUC(0-t) [1, 3]: 50006.21 ng·h/mL and 52203.96 ng·h/mL
- AUC(0-∞) [1, 3]: 50659.35 ng·h/mL and 52314.11 ng·h/mL
- CL [1, 3]: 0.66 mL/min/kg
- Cmax [1, 3]: 5141.60 ng/mL and 6038.43 ng/mL
- MRT(0-t) [1, 3]: 4.62 h and 4.30 h
- MRT(0-∞) [1, 3]: 4.95 h and 4.35 h
- Tmax [1, 3]: 30 min and 4.8 min
- Vz [1, 3]: 0.23 L/kg
- t1/2 [1, 3]: 4.02 h and 2.83 h
- AUC(0-t) [1, 4]: 106563.84 ng·h/mL and 85266.27 ng·h/mL
- AUC(0-∞) [1, 4]: 106654.00 ng·h/mL and 85298.58 ng·h/mL
- Cmax [1, 4]: 10867.97 ng/mL and 11828.43 ng/mL
- MRT(0-t) [1, 4]: 5.03 h and 4.46 h
- MRT(0-∞) [1, 4]: 5.04 h and 4.47 h
- t1/2 [1, 4]: 2.28 h and 2.03 h
- AUC(0-inf) [1, 5]: 53200 ng·h/mL
- clearance [1, 5]: 0.63 mL/min/kg
- AUC(0-t) [1, 6]: 53100 ng·h/mL
- Cmax [1, 7]: 5980 ng/mL
- MRT last [1, 5]: 4.38 h
- MRT inf [1, 5]: 4.44 h
- Vd [1, 5]: 0.16 L/kg
- half-life [1, 8]: 173 min
- AUC(0-inf) [1, 9]: 52100 ng·h/mL
- clearance [1, 9]: 0.64 mL/min/kg
- AUC(0-t) [1, 10]: 51800 ng·h/mL
- Cmax [1, 11]: 5720 ng/mL
- MRT last [1, 9]: 4.43 h
- MRT inf [1, 9]: 4.58 h
- Tmax [1, 12]: 13.3 min
- Vd [1, 9]: 0.18 L/kg
- half-life [1, 13]: 194 min
- AUC(0-inf) [1, 14]: 69300 ng·h/mL
- AUC(0-t) ([1]; male, ICR, mouse, plasma, po, 5 mg/kg, ICR mice, PO 5 mg/kg, individual animal, read-out: AUC(0-t)): 69200 ng·h/mL
- Cmax [1, 15]: 7630 ng/mL
- MRT last [1, 14]: 4.92 h
- MRT inf [1, 14]: 4.94 h
- Tmax [1, 16]: 120 min
- half-life ([1]; male, ICR, mouse, plasma, po, 5 mg/kg, ICR mice, PO 5 mg/kg, individual animal, read-out: t1/2 (converted)): 134 min
- AUC(0-inf) [1, 17]: 87100 ng·h/mL
- AUC(0-t) [1, 18]: 87000 ng·h/mL
- Cmax [1, 19]: 10100 ng/mL
- MRT last [1, 17]: 4.8 h
- MRT inf [1, 17]: 4.82 h
- Tmax [1, 20]: 120 min
- half-life [1, 21]: 131 min
- AUC(0-t) [1, 22]: 87000 ng·h/mL
- half-life [1, 23]: 131 min
- bioavailability [1, 24]: 67.2%
- IC50 (MDM2): 1.78 nM
- IC50 [2]: 2.29 nM

Structure (SMILES): CCOc1cc(OC)c(-c2nc3c(n2C(C)C)[C@@]2(C(=O)Nc4cc(Cl)ccc42)N(c2cc(Cl)ccc2C)C3=O)cn1 [Example S-72, (S)-6-chloro-5′-(5-chloro-2-methylphenyl)-2′-(6-ethoxy-4-methoxypyridin-3-yl)-3′-isopropyl-3′H-spiro[dihydroindole-3,4′-pyrrolo[3,4-d]imidazole]-2,6′(5′H)-dione]
- AUC(0-t) [1, 3]: 11802.83 ng·h/mL and 14847.37 ng·h/mL
- AUC(0-∞) [1, 3]: 12174.58 ng·h/mL and 17305.95 ng·h/mL
- CL [1, 3]: 2.74 mL/min/kg and 1.93 mL/min/kg
- Cmax [1, 3]: 4839.23 ng/mL and 3686.88 ng/mL
- MRT(0-t) [1, 3]: 1.52 h and 1.96 h
- MRT(0-∞) [1, 3]: 1.71 h and 2.98 h
- Tmax [1, 3]: 4.8 min and 60 min
- Vz [1, 3]: 0.29 L/kg and 0.36 L/kg
- t1/2 [1, 3]: 1.23 h and 2.16 h
- AUC(0-t) [1, 4]: 51286.19 ng·h/mL and 23996.12 ng·h/mL and 26941.23 ng·h/mL
- AUC(0-∞) [1, 4]: 51351.03 ng·h/mL and 24161.28 ng·h/mL and 27586.31 ng·h/mL
- Cmax [1, 4]: 7160.86 ng/mL and 6289.71 ng/mL
- MRT(0-t) [1, 4]: 2.18 h and 2.66 h
- MRT(0-∞) [1, 4]: 2.23 h and 2.84 h
- Tmax [1, 4]: 60 min
- t1/2 [1, 4]: 2.54 h and 1.13 h and 1.47 h
- AUC(0-inf) [1, 5]: 11900 ng·h/mL
- clearance [1, 5]: 2.8 mL/min/kg
- AUC(0-t) [1, 6]: 11500 ng·h/mL
- Cmax [1, 7]: 4630 ng/mL
- MRT last [1, 5]: 1.53 h
- MRT inf [1, 5]: 1.78 h
- Vd [1, 5]: 0.34 L/kg
- half-life [1, 8]: 83.4 min
- AUC(0-inf) [1, 9]: 13800 ng·h/mL
- clearance [1, 9]: 2.49 mL/min/kg
- AUC(0-t) [1, 10]: 12700 ng·h/mL
- Cmax [1, 11]: 4390 ng/mL
- MRT last [1, 9]: 1.67 h
- MRT inf [1, 9]: 2.16 h
- Tmax [1, 12]: 23.3 min
- Vd [1, 9]: 0.33 L/kg
- half-life [1, 13]: 95.4 min
- Cmax [1, 15]: 7870 ng/mL
- MRT last [1, 14]: 3.95 h
- MRT inf [1, 14]: 3.98 h
- Tmax [1, 16]: 30 min
- AUC(0-inf) [1, 17]: 34400 ng·h/mL
- AUC(0-t) [1, 18]: 34100 ng·h/mL
- Cmax [1, 19]: 7110 ng/mL
- MRT last [1, 17]: 2.93 h
- MRT inf [1, 17]: 3.01 h
- Tmax [1, 20]: 40.2 min
- half-life [1, 21]: 103 min
- AUC(0-t) [1, 22]: 34100 ng·h/mL
- half-life [1, 23]: 103 min
- bioavailability ([1]; male, ICR, mouse, plasma, oral intragastric administration 5 mg/kg, read-out: bioavailability): 107%
- bioavailability [1, 24]: 107%
- IC50 (MDM2): 0.9 nM
- IC50 [2]: 5.9 nM
